Legend:
[1] = system: tobacco plants overexpressing ATH1; assay: Foliar application (spraying) of GA3 to tobacco plants overexpressing ATH1; format: in vivo, Nicotiana tabacum; conditions: 35S::ATH1 tobacco; for late-flowering phenotype of ATH1 overexpressing tobacco after GA spraying: foliar GA3 spraying, data not shown
Description: Tobacco plants (Nicotiana tabacum L. cv. Samsun NN) were transformed using the leaf disk procedure (Horsch et al., 1985). Transgenic plants were selected on MS-medium (Murashige and Skoog, 1962) containing […] kanamycin and 2% sucrose. After transfer to soil plants were grown in a greenhouse at 22° C. under a light regime of 16 hours daylight when necessary supplemented with artificial light. The effects of gibberellin (GA) were tested by foliar applications (spraying) of 100 mM GA3 in a solution containing 100 ml/l of Triton X-100. Control plants were sprayed with a solution containing only 100 ml/l of Triton X-100. Spraying began 60 days after sowing when the wild-type plants were approximately 5 cm tall and the 35S CaMV::ATH1 plants approximately 2.5 cm tall, and continued at 3- to 4-day intervals. Plant height was measured every 3 to 4 days and this will be continued until the onset of flowering, as determined by the appearance of flower primordia.

35S::ATH1 Arabidopsis = assay: Rescue of 35S::ATH1 Arabidopsis seeds/seedlings on growth medium containing GA3; format: in vivo, Arabidopsis thaliana; conditions: growth medium containing 10^-5 M GA3 for three days
Description: In order to gain more insight into the role of ATH1 in plant development, the full length ATH1 cDNA was fused to the constitutive 35S promoter of cauliflower mosaic virus and the 35S::ATH1 chimeric gene was transformed into Arabidopsis via the vacuum infiltration method. Six independent primary transformants could be obtained and all transgenic lines were selfed. From each independent transgenic line 40 individual seeds were germinated and scored for altered phenotypes compared to wild type plants. […] Once rescued and transferred to soil plants developed normally, except for a late flowering phenotype. Under short day conditions transgenic plants form much more rosette leaves (vegetative leaves) than wild type plants (about 40 rosette leaves and 100 days after germination, and plants are still not flowering, compared to about 30 rosette leaves in wild-type plants until flowering). Under LD conditions in most of these plants a partial generative to vegetative reversion occurs, shown by the formation of aerial rosettes (vegetative leaves) on the inflorescence stem. Plants (C24 ecotype) containing an extra copy of the ATH1 cDNA under control of the Hsp18.2 heat shock promoter (HspHlB plants) also show a late-flowering phenotype. […]

C=C1C[C@]23C[C@@]1(O)CC[C@H]2[C@@]12C=C[C@H](O)[C@@](C)(C(=O)O1)[C@H]2[C@@H]3C(=O)O [GA3, gibberellin A3]
late-flowering phenotype of ATH1 overexpressing tobacco after GA spraying [1]: holds also true | late-flowering phenotype of ATH1 overexpressing tobacco after GA spraying ([1]; listed as GA): rescue | stem length (plant height) of ATH1 overexpressing tobacco after GA3 ([1]; spraying of 100 mM GA3 at three to four day intervals): complete restoration of the wild-type stem length | poor germination and arrest in seedling stage of 35S::ATH1 Arabidopsis (35S::ATH1 Arabidopsis): could be overcome

Reference: patent US6864051B1, “Plant gene constructs and their use” (priority 1997, dated 2005)
